One series concerns the target T1, human PDE5 (Homo sapiens, UniProt O76074).
T1 construct: from tissue; host or cells: human platelets from fresh donor blood (10,000 g supernatant of sonified platelets)
The series can be described thus: Inhibition of PDE5 activity (modified SPA test, human platelet lysate). Format: biochemical. The following applies: PDE5-containing human platelet lysate, 0.5 μM cGMP substrate, 37° C. The protocol:
As a source for human PDE5, platelets were used. For that purpose, 150 ml fresh blood from human donors anticoagulated with citrate [final concentration 0.3% (w/v)] was centrifuged at 200 g for 10 min to obtain the so-called platelet-rich-plasma (PRP) as a supernatant. 1/10 volume of ACD solution (85 mM Na3-citrate, 111 mM D-glucose, 71 mM citric acid, pH 4.4) was added to 9/10 volume of PRP. After centrifugation (1,400 g, 10 min) the cell pellet was resuspended in 3 ml homogenization buffer (NaCl 140 mM, KCl 3.8 mM, EGTA 1 mM, MgCl2 1 mM, Tris-HCl 20 mM, beta-mercaptoethanol 1 mM, pH 8.2) plus protease-inhibitor mix giving rise to the final concentrations of 0.5 mM Pefablock (Roche), 10 μM Leupeptin, 5 μM Trypsininhibitor, 2 mM Benzamidin and 10 μM Pepstatin A. The suspension was sonified and thereafter centrifuged for 15 min at 10,000 g. The resulting supernatant (platelet lysate) was used for enzymatic testings.
PDE5A1 activity is inhibited by the compounds of the invention in a modified SPA (scintillation proximity assay) test, supplied by Amersham Biosciences (see procedural instructions “phosphodiesterase [3H]cAMP SPA enzyme assay, code TRKQ 7090”), carried out in 96-well microtitre plates (MTP's). The test volume is 100 μl and contains 20 mM Tris buffer (pH 7.4), 0.1 mg of BSA (bovine serum albumin)/ml, 5 mM Mg^2+, 1 μM motapizone, 10 nM PDE2 inhibitor BAY-60-7550, 0.5 μM cGMP (including about 50,000 cpm of [3H]cGMP as a tracer), 1 μl of the respective compound dilution in dimethylsulfoxide (DMSO) and sufficient PDE5-containing platelet lysat (10,000×g supernatant, see above) to ensure that 10-20 wt % of the cGMP is converted under the said experimental conditions. […] After a preincubation of 5 min at 37° C., the reaction was started by adding the substrate (cGMP) and the assay was incubated for a further 15 min; after that, it was stopped by adding SPA beads (50 μl). In accordance with the manufacturer's instructions, the SPA beads had previously been resuspended in water, but were then diluted 1:3 (v/v) in water; the diluted solution also contains 3 mM 8-methoxymethyl-3-isobutyl-1-methylxanthine (IBMX) to ensure a complete PDE activity stop. After the beads have been sedimented (>30 min), the MTP's are analyzed in commercially available luminescence detection devices. The corresponding IC50 values of the compounds for the inhibition of PDE activity are determined from the concentration-effect curves by means of non-linear regression.

The structures appear in SMILES notation.

Regarding `CC1(C)CC(=O)c2c(nc(Cc3ccc(N)cc3)c3[nH]c4ccccc4c23)C1` [Example 40, 6-(4-Amino-benzyl)-3,3-dimethyl-2,3,4,7-tetrahydro-indolo[2,3-c]quinolin-1-one], the melting point (usually the temperature, or range, at which the solid turns liquid) was 123 to 124 °C. Besides, the IC50 – broadly, the concentration at which inhibition is half-maximal – at human PDE5 was 11.7 nM.
The like results for `CC1(C)CC(=O)c2c(nc(Cc3cccc(N)c3)c3[nH]c4ccccc4c23)C1` [Example 41, 6-(3-Amino-benzyl)-3,3-dimethyl-2,3,4,7-tetrahydro-indolo[2,3-c]quinolin-1-one] were, in that order, 232 to 234 °C and 5.13 nM.
On the same counts, the results for `CC(=O)Nc1ccc(Cc2nc3c(c4c2[nH]c2ccccc24)C(=O)CC(C)(C)C3)cc1` [Example 44, N-[4-(3,3-Dimethyl-1-oxo-2,3,4,7-tetrahydro-1H-indolo[2,3-c]quinolin-6-ylmethyl)-phenyl]-acetamide] are 153 to 154 °C and 16.6 nM.
The like results for `COc1ccc(Cc2nc3c(c4c2[nH]c2ccccc24)C(O)CC(C)(C)C3)cc1` (stereo not shown) [Example 47, 6-(4-Methoxy-benzyl)-3,3-dimethyl-2,3,4,7-tetrahydro-1H-indolo[2,3-c]quinolin-1-ol] were, in that order, 146 °C and 5.37 nM.
In the case of `COc1ccc(Cc2nc3c(c4c2[nH]c2ccccc24)C(O)CCC3)cc1` (stereo not shown) [Example 48, 6-(4-Methoxy-benzyl)-2,3,4,7-tetrahydro-1H-indolo[2,3-c]quinolin-1-ol], the melting point came out at 204 °C. The same compound showed an IC50 at human PDE5 of 13.2 nM.
The like results for `OC1CCCc2nc(Cc3ccccc3)c3[nH]c4ccccc4c3c21` (stereo not shown) [Example 49, 6-Benzyl-2,3,4,7-tetrahydro-1H-indolo[2,3-c]quinolin-1-ol] were, in that order, 211 °C and 66.1 nM.
On the same counts, the results for `CC1(C)Cc2nc(Cc3ccc(O)cc3)c3[nH]c4ccccc4c3c2C(O)C1` (stereo not shown) [Example 51, 6-(4-Hydroxy-benzyl)-3,3-dimethyl-2,3,4,7-tetrahydro-1H-indolo[2,3-c]quinolin-1-ol] are 212 °C and 5.5 nM.
Compound `COc1ccc(Cc2c3[nH]c4ccccc4c3c3c([n+]2[O-])CC(C)(C)CC3O)cc1` (stereo not shown) [Example 52, 6-(4-Methoxy-benzyl)-3,3-dimethyl-5-oxy-2,3,4,7-tetrahydro-1H-indolo[2,3-c]quinolin-1-ol] displayed a melting point of 185 °C. The midpoint of inhibition against human PDE5, the IC50, lay at 20.4 nM.
On the same counts, the results for `CC1(C)Cc2nc(Cc3ccc(OC(F)(F)F)cc3)c3[nH]c4ccccc4c3c2C(O)C1` (stereo not shown) [Example 53, 3,3-Dimethyl-6-(4-trifluoromethoxy-benzyl)-2,3,4,7-tetrahydro-1H-indolo[2,3-c]quinolin-1-ol] are 117 to 119 °C and 89.1 nM.
The like results for `CC1(C)Cc2nc(Cc3ccc(N)cc3)c3[nH]c4ccccc4c3c2C(O)C1` (stereo not shown) [Example 54, 6-(4-Amino-benzyl)-3,3-dimethyl-2,3,4,7-tetrahydro-1H-indolo[2,3-c]quinolin-1-ol] were, in that order, 206 to 208 °C and 26.9 nM.
On the same counts, the results for `CCOc1ccc(Cc2nc3c(c4c2[nH]c2ccccc24)C(O)CC(C)(C)C3)cc1` (stereo not shown) [Example 55, 6-(4-Ethoxy-benzyl)-3,3-dimethyl-2,3,4,7-tetrahydro-1H-indolo[2,3-c]quinolin-1-ol] are 182 to 184 °C and 25.1 nM.
`CC1(C)Cc2nc(Cc3cccc([N+](=O)[O-])c3)c3[nH]c4ccccc4c3c2C(O)C1` (stereo not shown) [Example 56, 3,3-Dimethyl-6-(3-nitro-benzyl)-2,3,4,7-tetrahydro-1H-indolo[2,3-c]quinolin-1-ol] displayed a melting point of 228 to 230 °C. At human PDE5, this compound had an IC50 of 191 nM.
On the same counts, the results for `CC1(C)Cc2nc(Cc3cccc(N)c3)c3[nH]c4ccccc4c3c2C(O)C1` (stereo not shown) [Example 57, 6-(3-Amino-benzyl)-3,3-dimethyl-2,3,4,7-tetrahydro-1H-indolo[2,3-c]quinolin-1-ol] are 225 to 227 °C and 4.07 nM.
The like results for `CC(C)c1ccc(Cc2nc3c(c4c2[nH]c2ccccc24)C(O)CC(C)(C)C3)cc1` (stereo not shown) [Example 58, 6-(4-Isopropyl-benzyl)-3,3-dimethyl-2,3,4,7-tetrahydro-1H-indolo[2,3-c]quinolin-1-ol] were, in that order, 112 to 114 °C and 148 nM.
The like results for `CCC(=O)Nc1ccc(Cc2nc3c(c4c2[nH]c2ccccc24)C(O)CC(C)(C)C3)cc1` (stereo not shown) [Example 60, N-[4-(1-Hydroxy-3,3-dimethyl-2,3,4,7-tetrahydro-1H-indolo[2,3-c]quinolin-6-ylmethyl)-phenyl]-propionamide] were, in that order, 165 to 168 °C and 70.8 nM.
In the case of `OC1CCCc2nc(Cc3ccc4c(c3)OCO4)c3[nH]c4ccccc4c3c21` (stereo not shown) [Example 61, 6-Benzo[1,3]dioxol-5-ylmethyl-2,3,4,7-tetrahydro-1H-indolo[2,3-c]quinolin-1-ol], the melting point was in the range of 120 to 123 °C. In addition, on human PDE5, the IC50 was 7.24 nM.
Regarding `CC1(C)Cc2nc(Cc3cccc(Br)c3)c3[nH]c4ccccc4c3c2C(O)C1` (stereo not shown) [Example 62, 6-(3-Bromo-benzyl)-3,3-dimethyl-2,3,4,7-tetrahydro-1H-indolo[2,3-c]quinolin-1-ol], the melting point was 118 to 125 °C. This compound also had an IC50 on human PDE5 of 50.1 nM.
The like results for `CC(=O)Nc1ccc(Cc2nc3c(c4c2[nH]c2ccccc24)C(O)CC(C)(C)C3)cc1` (stereo not shown) [Example 63, N-[4-(1-Hydroxy-3,3-dimethyl-2,3,4,7-tetrahydro-1H-indolo[2,3-c]quinolin-6-ylmethyl)-phenyl]-acetamide] were, in that order, 195 to 197 °C and 46.8 nM.
In the case of `CC1(C)Cc2nc(Cc3ccc(F)cc3)c3[nH]c4ccccc4c3c2C(O)C1` (stereo not shown) [Example 64, 6-(4-Fluoro-benzyl)-3,3-dimethyl-2,3,4,7-tetrahydro-1H-indolo[2,3-c]quinolin-1-ol], the melting point lay within 187 to 189 °C. The compound also gave an IC50 against human PDE5 of 28.8 nM.
On the same counts, the results for `CC1(C)Cc2nc(Cc3ccc(F)c(F)c3)c3[nH]c4ccccc4c3c2C(O)C1` (stereo not shown) [Example 66, 6-(3,4-Difluoro-benzyl)-3,3-dimethyl-2,3,4,7-tetrahydro-1H-indolo[2,3-c]quinolin-1-ol] are 121 to 128 °C and 16.6 nM.
The like results for `CC1(C)Cc2nc(Cc3cc(F)cc(F)c3)c3[nH]c4ccccc4c3c2C(O)C1` (stereo not shown) [Example 67, 6-(3,5-Difluoro-benzyl)-3,3-dimethyl-2,3,4,7-tetrahydro-1H-indolo[2,3-c]quinolin-1-ol] were, in that order, 117 to 123 °C and 7.94 nM.
Compound `CC(=O)Nc1ccc(Cc2nc3c(c4c2[nH]c2ccccc24)C(O)CCC3)cc1` (stereo not shown) [Example 69, N-[4-(1-Hydroxy-2,3,4,7-tetrahydro-1H-indolo[2,3-c]quinolin-6-ylmethyl)-phenyl]-acetamide] returned a melting point of 195 to 197 °C. This compound also showed an IC50 on human PDE5 of 302 nM.
On the same counts, the results for `CC1(C)Cc2nc(Cc3ccc(NC(N)=O)cc3)c3[nH]c4ccccc4c3c2C(O)C1` (stereo not shown) [Example 70, [4-(1-Hydroxy-3,3-dimethyl-2,3,4,7-tetrahydro-1H-indolo[2,3-c]quinolin-6-ylmethyl)-phenyl]-urea] are 236 to 238 °C and 22.9 nM.
The like results for `COc1ccc(Cc2nc3c(c4c2[nH]c2ccccc24)C(O)CCC3)cc1F` (stereo not shown) [Example 71, 6-(3-Fluoro-4-methoxy-benzyl)-2,3,4,7-tetrahydro-1H-indolo[2,3-c]quinolin-1-ol] were, in that order, 118 to 120 °C and 2.51 nM.
The like results for `COc1c(F)cc(Cc2nc3c(c4c2[nH]c2ccccc24)C(O)CC(C)(C)C3)cc1F` (stereo not shown) [Example 73, 6-(3,5-Difluoro-4-methoxy-benzyl)-3,3-dimethyl-2,3,4,7-tetrahydro-1H-indolo[2,3-c]quinolin-1-ol] were, in that order, 131 to 133 °C and 0.2 nM.
`COc1ccc(Cc2nc3c(c4c2[nH]c2ccccc24)C(O)CC(C)(C)C3)c(F)c1F` (stereo not shown) [Example 74, 6-(2,3-Difluoro-4-methoxy-benzyl)-3,3-dimethyl-2,3,4,7-tetrahydro-1H-indolo[2,3-c]quinolin-1-ol]: the melting point is 197 to 198 °C. This compound gave an IC50 against human PDE5 of 0.324 nM.

The values are drawn from US20100120730A1, “6-BENZYL-2,3,4,7-TETRAHYDRO-INDOLO [2,3-C] QUINOLINE COMPOUNDS USEFUL AS PDE5 INHIBITORS” (NYCOMED GmbH, priority 2007, published 2010).
